Experimental data reported in patent US6420558B1, “Aminopiperidine derivates as integrin αvβ3 antagonists” (Meiji Seika Kaisha, Ltd., priority 1998, dated 2002).

Target: T1, integrin αvβ3 (vitronectin receptor purified from the human placenta) (Homo sapiens, UniProt P05106+P06756)
T1 construct: a vitronectin receptor (protein content: 118 μg/ml) purified from the human placenta; from tissue; host or cells: human placenta
Assay: αvβ3 binding assay (vitronectin-vitronectin receptor binding assay)
Details: vitronectin binding to human placenta vitronectin receptor; read-out: integrin αvβ3 antagonistic activity, IC50 value

T1 sequence (P06756 31-889 limits assumed): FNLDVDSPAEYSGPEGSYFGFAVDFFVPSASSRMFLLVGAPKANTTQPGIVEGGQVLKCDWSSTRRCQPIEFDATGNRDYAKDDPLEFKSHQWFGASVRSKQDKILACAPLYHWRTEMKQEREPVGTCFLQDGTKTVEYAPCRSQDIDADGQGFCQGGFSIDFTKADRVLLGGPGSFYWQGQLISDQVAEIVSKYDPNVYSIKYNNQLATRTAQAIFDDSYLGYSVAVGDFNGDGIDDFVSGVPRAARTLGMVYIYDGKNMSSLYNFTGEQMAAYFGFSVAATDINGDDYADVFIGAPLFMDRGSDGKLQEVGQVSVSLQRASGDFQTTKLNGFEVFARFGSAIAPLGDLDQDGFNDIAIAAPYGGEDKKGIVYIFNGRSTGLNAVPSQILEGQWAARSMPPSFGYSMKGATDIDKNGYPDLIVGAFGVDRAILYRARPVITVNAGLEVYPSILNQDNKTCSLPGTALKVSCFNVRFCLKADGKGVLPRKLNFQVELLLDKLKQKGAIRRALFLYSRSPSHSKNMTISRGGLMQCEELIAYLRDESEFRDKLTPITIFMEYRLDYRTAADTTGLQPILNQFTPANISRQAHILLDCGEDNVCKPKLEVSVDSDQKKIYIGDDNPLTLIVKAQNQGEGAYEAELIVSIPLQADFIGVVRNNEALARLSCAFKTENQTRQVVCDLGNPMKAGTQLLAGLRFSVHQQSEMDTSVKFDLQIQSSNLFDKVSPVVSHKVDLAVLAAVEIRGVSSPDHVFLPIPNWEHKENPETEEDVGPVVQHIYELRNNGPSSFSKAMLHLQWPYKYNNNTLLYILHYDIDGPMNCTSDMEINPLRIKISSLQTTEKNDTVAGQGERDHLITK
T1 sequence (P06756 891-1048 limits assumed): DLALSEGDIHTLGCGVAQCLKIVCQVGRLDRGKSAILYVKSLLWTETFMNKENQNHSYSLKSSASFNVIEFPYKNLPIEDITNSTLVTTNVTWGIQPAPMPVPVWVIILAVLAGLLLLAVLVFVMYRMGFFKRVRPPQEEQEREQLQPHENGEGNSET
T1 sequence (P05106 27-788): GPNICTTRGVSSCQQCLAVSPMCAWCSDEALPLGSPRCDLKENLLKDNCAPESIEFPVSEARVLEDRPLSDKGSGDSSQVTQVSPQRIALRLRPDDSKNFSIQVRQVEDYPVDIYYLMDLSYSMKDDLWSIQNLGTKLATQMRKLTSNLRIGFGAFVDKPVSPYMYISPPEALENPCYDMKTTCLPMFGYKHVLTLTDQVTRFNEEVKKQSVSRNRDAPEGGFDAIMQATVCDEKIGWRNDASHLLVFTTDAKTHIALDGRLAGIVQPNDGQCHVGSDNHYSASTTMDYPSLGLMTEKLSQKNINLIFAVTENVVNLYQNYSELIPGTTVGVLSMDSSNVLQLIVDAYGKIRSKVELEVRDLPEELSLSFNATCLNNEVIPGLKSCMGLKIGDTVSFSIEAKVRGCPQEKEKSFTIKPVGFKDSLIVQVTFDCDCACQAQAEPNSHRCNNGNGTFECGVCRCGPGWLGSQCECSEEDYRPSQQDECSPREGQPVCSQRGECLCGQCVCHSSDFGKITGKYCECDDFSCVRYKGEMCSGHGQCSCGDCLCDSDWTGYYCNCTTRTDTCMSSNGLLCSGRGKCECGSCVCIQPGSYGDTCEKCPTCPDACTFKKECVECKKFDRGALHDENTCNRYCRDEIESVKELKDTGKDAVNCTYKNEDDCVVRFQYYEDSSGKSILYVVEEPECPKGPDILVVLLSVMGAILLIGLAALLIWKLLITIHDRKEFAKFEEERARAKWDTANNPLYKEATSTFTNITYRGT

SMILES: O=C(NC[C@H](NS(=O)(=O)c1ccccc1)C(=O)O)c1ccc(N2CCC(NC3=NCCCN3)CC2)c(F)c1 [Example 52, (2S)-Benzenesulfonylamino-3-[3-fluoro-4-{4-(1,4,5,6-tetrahydropyrimidin-2-ylamino)piperidin-1-yl}-benzoylamino]propionic acid]
- IC50: ≤ 1 nM
